The results in this text go back to patent US10106556B2, “Heterocyclic compound” (TAKEDA PHARMACEUTICAL COMPANY LIMITED, priority 2015, dated 2018).

The first test deals with T1, His-hMAGL (recombinant polyhistidine tagged human MAGL protein) (Homo sapiens, UniProt Q99685).
T1 construct: made in house; host or cells: E. coli BL21(DE3)
T1 sequence (Q99685 1-303): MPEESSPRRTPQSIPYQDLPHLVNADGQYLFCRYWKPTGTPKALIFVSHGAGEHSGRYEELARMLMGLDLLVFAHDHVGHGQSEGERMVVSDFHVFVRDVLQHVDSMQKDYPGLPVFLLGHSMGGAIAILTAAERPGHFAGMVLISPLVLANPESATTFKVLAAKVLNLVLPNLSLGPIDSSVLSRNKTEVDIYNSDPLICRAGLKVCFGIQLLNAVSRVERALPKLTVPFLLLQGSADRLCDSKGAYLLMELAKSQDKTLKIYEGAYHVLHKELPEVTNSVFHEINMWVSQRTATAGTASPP
Briefly: Measurement of MAGL inhibitory activity (arachidonic acid production from 2-arachidonylglycerol, RapidFire-mass spectrometry). The settings on record: MAGL inhibitory rate at 10 μM test compound; 60 min preincubation with His-hMAGL, 2-arachidonylglycerol substrate, 10 min reaction at room temperature. Type of test: biochemical. The gist of the method: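 Inhibition (%) was derived from arachidonic acid levels relative to enzyme-free and compound-free groups. Product was measured by online C4 solid-phase extraction and triple-quadrupole MS in negative SRM mode, corrected by arachidonic acid-d8 (3 μM in the acetonitrile added). Substrate was 2-arachidonylglycerol; enzyme was His-tagged recombinant human MAGL.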
On to `O=C1COc2cc(F)c(C(=O)N3CC(OCc4ccccc4Cl)C3)cc2N1` [Example 342, 6-((3-((2-chlorobenzyl)oxy)azetidin-1-yl)carbonyl)-7-fluoro-2H-1,4-benzoxazin-3(4H)-one], for which the inhibition – broadly, the drop in the measured response relative to a control, in per cent – at 10 µM amounted to 102%.
Consider `Cc1ccc(OCC2CN(C(=O)c3cc4c(cc3F)OCC(=O)N4)C2)cc1F` [Example 269, 7-fluoro-6-((3-((3-fluoro-4-methylphenoxy)methyl)azetidin-1-yl)carbonyl)-2H-1,4-benzoxazin-3(4H)-one], for which the inhibition at 10 µM is 101%.
Take `O=C1COc2cnc(C(=O)N3CCC(COc4ccc(C(F)(F)F)cc4Cl)CC3)cc2N1` [Example 144, 7-((4-((2-chloro-4-(trifluoromethyl)phenoxy)methyl)piperidin-1-yl)carbonyl)-1H-pyrido[3,4-b][1,4]oxazin-2(3H)-one]: the inhibition at 10 µM is 98%.
On to `CC(Oc1ccc2cn[nH]c2c1)C1CN(C(=O)c2cc3c(cc2F)OCC(=O)N3)C1` (stereo not drawn) [Example 299, 7-fluoro-6-((3-(1-(1H-indazol-6-yloxy)ethyl)azetidin-1-yl)carbonyl)-2H-1,4-benzoxazin-3(4H)-one], for which the inhibition at 10 µM turned out to be 100%.
On to `Cc1cccc(-c2ccc(OCC3CN(C(=O)c4cc5c(cc4F)OCC(=O)N5)C3)c(F)c2)n1` [Example 230, 7-fluoro-6-((3-((2-fluoro-4-(6-methylpyridin-2-yl)phenoxy)methyl)azetidin-1-yl)carbonyl)-2H-1,4-benzoxazin-3(4H)-one], for which the inhibition at 10 µM came out at 95%.
Same read-out and setting: then `Cc1ccc(OCC2CCN(C(=O)c3ccc4c(c3)NC(=O)CO4)CC2)c(Cl)c1` [Example 36, 6-((4-((2-chloro-4-methylphenoxy)methyl)piperdin-1-yl)carbonyl)-2H-1,4-benzoxazin-3(4H)-one], with 104%.
For `O=C1COc2cc(F)c(C(=O)N3CC(COc4ccc(Cl)cc4-c4cnn(C(F)F)c4)C3)cc2N1` [Example 214, 6-((3-((4-chloro-2-(1-(difluoromethyl)-1H-pyrazol-4-yl)phenoxy)methyl)azetidin-1-yl)carbonyl)-7-fluoro-2H-1,4-benzoxazin-3(4H)-one], the inhibition at 10 µM is 104%.
Turning to `O=C1COc2ccc(C(=O)N3CCC(COc4ccc(Cl)c(F)c4)CC3)cc2N1` [Example 42, 6-((4-((4-chloro-3-fluorophenoxy)methyl)piperidin-1-yl)carbonyl)-2H-1,4-benzoxazin-3(4H)-one], the inhibition at 10 µM came out at 99%.
For the compound `O=C1COc2ccc(C(=O)N3CCC(COc4ccc(C(F)(F)F)cc4)CC3)cc2N1` [Example 58, 6-((4-((4-(trifluoromethyl)phenoxy)methyl)piperidin-1-yl)carbonyl)-2H-1,4-benzoxazin-3(4H)-one], the inhibition at 10 µM amounted to 100%.
As for `Cc1nc(C)c(-c2cc(Cl)ccc2OCC2CN(C(=O)c3cc4c(cc3F)OCC(=O)N4)C2)s1` [Example 268, 6-((3-((4-chloro-2-(2,4-dimethyl-1,3-thiazol-5-yl)phenoxy)methyl)azetidin-1-yl)carbonyl)-7-fluoro-2H-1,4-benzoxazin-3(4H)-one], the inhibition at 10 µM was determined as 101%.
Still for that read-out and setting: then `O=C1COc2cc(F)c(C(=O)N3CC(COc4ccc(Cl)cc4-c4ccncc4Cl)C3)cc2N1` [Example 210, 6-((3-((4-chloro-2-(3-chloropyridin-4-yl)phenoxy)methyl)azetidin-1-yl)carbonyl)-7-fluoro-2H-1,4-benzoxazin-3(4H)-one], with 101%; and `CC(C)(Oc1ccc(F)cc1F)C1CN(C(=O)c2cc3c(cc2F)OCC(=O)N3)C1` [Example 308, 6-((3-(2-(2,4-difluorophenoxy)propan-2-yl)azetidin-1-yl)carbonyl)-7-fluoro-2H-1,4-benzoxazin-3 (4H)-one], with 104%.
The same measure, in the same setting: then `O=C1COc2cc(F)c(C(=O)N3CC(COCc4ccc(Cl)cc4)C3)cc2N1` [Example 147, 6-((3-(((4-chlorobenzyl)oxy)methyl)azetidin-1-yl)carbonyl)-7-fluoro-2H-1,4-benzoxazin-3(4H)-one], with 102%.
As for `Cc1cc(OCC2CN(C(=O)c3cc4c(cc3F)OCC(=O)N4)C2)ccc1Cl` [Example 184, 6-((3-((4-chloro-3-methylphenoxy)methyl)azetidin-1-yl)carbonyl)-7-fluoro-2H-1,4-benzoxazin-3(4H)-one], the inhibition at 10 µM was 100%.

The same test, now with this note: MAGL inhibitory rate at 10 μM test compound; 60 min preincubation with His-hMAGL, 2-arachidonylglycerol substrate, 10 min reaction at room temperature; 10 µM.
With `CC(Oc1cccc(F)c1F)C1CN(C(=O)c2cc3c(cc2F)OCC(=O)N3)C1` (stereo not drawn) [Example 310, 6-((3-(1-(2,3-difluorophenoxy)ethyl)azetidin-1-yl)carbonyl)-7-fluoro-2H-1,4-benzoxazin-3(4H)-one], the “% inhibition (10 μM)” value is recorded as 99%.
